Measurements published in ChEMBL document CHEMBL1697781, “Assessment of the health effects of chemicals in humans: II. Construction of an adverse effects database for QSAR modeling” (Curr Drug Discov Technol, 2004).

What was measured:
Details in all cases: human; call rule not given here
Hepatotoxicity [1] = experiment: FDA HLAED, alkaline phosphatase increase
Hepatotoxicity [2] = experiment: FDA HLAED, serum glutamic pyruvic transaminase (SGPT) increase
Hepatotoxicity [3] = experiment: FDA HLAED, lactate dehydrogenase (LDH) increase
Hepatotoxicity [4] = experiment: FDA HLAED, gamma-glutamyl transferase (GGT) increase
Hepatotoxicity [5] = experiment: FDA HLAED, liver enzyme composite activity
Hepatotoxicity [6] = experiment: FDA HLAED, serum glutamic oxaloacetic transaminase (SGOT) increase
Wherever GGT Increase - Index Value is given: reference of the scale not given here.
Wherever LDH Increase - Index Value is given: reference of the scale not given here.

CC(C)C(=O)Nc1ccc([N+](=O)[O-])c(C(F)(F)F)c1 [FLUTAMIDE]
Alkaline Phosphatase Increase - Activity Score (Hepatotoxicity [1]): Active | Alkaline Phosphatase Increase - Index Value (Hepatotoxicity [1]): 16.8 | Alkaline Phosphatase Increase - Number of Reports (Hepatotoxicity [1]): >= 4 | SGPT Increase - Activity Score (Hepatotoxicity [2]): Active | SGPT Increase - Index Value (Hepatotoxicity [2]): 20.2 | SGPT Increase - Number of Reports (Hepatotoxicity [2]): >= 4 | LDH Increase - Activity Score (Hepatotoxicity [3]): Active | LDH Increase - Index Value (Hepatotoxicity [3]): 8.4 | LDH Increase - Number of Reports (Hepatotoxicity [3]): >= 4 | GGT Increase - Activity Score (Hepatotoxicity [4]): Active | GGT Increase - Index Value (Hepatotoxicity [4]): 6.7 | GGT Increase - Number of Reports (Hepatotoxicity [4]): >= 4 | Composite Activity - Active (Hepatotoxicity [5]): 5 | Composite Activity - Marginal (Hepatotoxicity [5]): 0 | Composite Activity - Score (Hepatotoxicity [5]): Active | SGOT Increase - Activity Score (Hepatotoxicity [6]): Active | SGOT Increase - Index Value (Hepatotoxicity [6]): 22.4 | SGOT Increase - Number of Reports (Hepatotoxicity [6]): >= 4

COc1ccccc1OCCNCC(O)COc1cccc2[nH]c3ccccc3c12 (configuration not stated) [CARVEDILOL]
Alkaline Phosphatase Increase - Activity Score (Hepatotoxicity [1]): Inactive | Alkaline Phosphatase Increase - Index Value (Hepatotoxicity [1]): 0 | Alkaline Phosphatase Increase - Number of Reports (Hepatotoxicity [1]): < 4 | SGPT Increase - Activity Score (Hepatotoxicity [2]): Inactive | SGPT Increase - Index Value (Hepatotoxicity [2]): 0 | SGPT Increase - Number of Reports (Hepatotoxicity [2]): < 4 | LDH Increase - Activity Score (Hepatotoxicity [3]): Inactive | LDH Increase - Index Value (Hepatotoxicity [3]): 0 | LDH Increase - Number of Reports (Hepatotoxicity [3]): < 4 | GGT Increase - Activity Score (Hepatotoxicity [4]): Inactive | GGT Increase - Index Value (Hepatotoxicity [4]): 0 | GGT Increase - Number of Reports (Hepatotoxicity [4]): < 4 | Composite Activity - Active (Hepatotoxicity [5]): 0 | Composite Activity - Marginal (Hepatotoxicity [5]): 0 | Composite Activity - Score (Hepatotoxicity [5]): Inactive | SGOT Increase - Activity Score (Hepatotoxicity [6]): Inactive | SGOT Increase - Index Value (Hepatotoxicity [6]): 0 | SGOT Increase - Number of Reports (Hepatotoxicity [6]): < 4

Oc1ccc2c(c1)[C@@]13CCCC[C@@]1(O)[C@@H](C2)N(CC1CCC1)CC3 [BUTORPHANOL]
Alkaline Phosphatase Increase - Activity Score (Hepatotoxicity [1]): Inactive | Alkaline Phosphatase Increase - Index Value (Hepatotoxicity [1]): 0 | Alkaline Phosphatase Increase - Number of Reports (Hepatotoxicity [1]): < 4 | SGPT Increase - Activity Score (Hepatotoxicity [2]): Inactive | SGPT Increase - Index Value (Hepatotoxicity [2]): 0 | SGPT Increase - Number of Reports (Hepatotoxicity [2]): < 4 | LDH Increase - Activity Score (Hepatotoxicity [3]): Inactive | LDH Increase - Index Value (Hepatotoxicity [3]): 0 | LDH Increase - Number of Reports (Hepatotoxicity [3]): < 4 | GGT Increase - Activity Score (Hepatotoxicity [4]): Inactive | GGT Increase - Index Value (Hepatotoxicity [4]): 0 | GGT Increase - Number of Reports (Hepatotoxicity [4]): < 4 | Composite Activity - Active (Hepatotoxicity [5]): 0 | Composite Activity - Marginal (Hepatotoxicity [5]): 0 | Composite Activity - Score (Hepatotoxicity [5]): Inactive | SGOT Increase - Activity Score (Hepatotoxicity [6]): Inactive | SGOT Increase - Index Value (Hepatotoxicity [6]): 0 | SGOT Increase - Number of Reports (Hepatotoxicity [6]): < 4

Cc1cc(CC(=O)O)n(C)c1C(=O)c1ccc(Cl)cc1 [ZOMEPIRAC]
Alkaline Phosphatase Increase - Activity Score (Hepatotoxicity [1]): Inactive | Alkaline Phosphatase Increase - Index Value (Hepatotoxicity [1]): 1.1 | Alkaline Phosphatase Increase - Number of Reports (Hepatotoxicity [1]): >= 4 | SGPT Increase - Activity Score (Hepatotoxicity [2]): Inactive | SGPT Increase - Index Value (Hepatotoxicity [2]): 0.7 | SGPT Increase - Number of Reports (Hepatotoxicity [2]): >= 4 | LDH Increase - Activity Score (Hepatotoxicity [3]): Inactive | LDH Increase - Index Value (Hepatotoxicity [3]): 0.7 | LDH Increase - Number of Reports (Hepatotoxicity [3]): >= 4 | GGT Increase - Activity Score (Hepatotoxicity [4]): Inactive | GGT Increase - Index Value (Hepatotoxicity [4]): 0 | GGT Increase - Number of Reports (Hepatotoxicity [4]): < 4 | Composite Activity - Active (Hepatotoxicity [5]): 0 | Composite Activity - Marginal (Hepatotoxicity [5]): 0 | Composite Activity - Score (Hepatotoxicity [5]): Inactive | SGOT Increase - Activity Score (Hepatotoxicity [6]): Inactive | SGOT Increase - Index Value (Hepatotoxicity [6]): 1.1 | SGOT Increase - Number of Reports (Hepatotoxicity [6]): >= 4

CN(C)c1nc(N(C)C)nc(N(C)C)n1 [ALTRETAMINE]
Alkaline Phosphatase Increase - Activity Score (Hepatotoxicity [1]): Inactive | Alkaline Phosphatase Increase - Index Value (Hepatotoxicity [1]): 18.3 | Alkaline Phosphatase Increase - Number of Reports (Hepatotoxicity [1]): < 4 | SGPT Increase - Activity Score (Hepatotoxicity [2]): Inactive | SGPT Increase - Index Value (Hepatotoxicity [2]): 0 | SGPT Increase - Number of Reports (Hepatotoxicity [2]): < 4 | LDH Increase - Activity Score (Hepatotoxicity [3]): Inactive | LDH Increase - Index Value (Hepatotoxicity [3]): 0 | LDH Increase - Number of Reports (Hepatotoxicity [3]): < 4 | GGT Increase - Activity Score (Hepatotoxicity [4]): Inactive | GGT Increase - Index Value (Hepatotoxicity [4]): 0 | GGT Increase - Number of Reports (Hepatotoxicity [4]): < 4 | Composite Activity - Active (Hepatotoxicity [5]): 0 | Composite Activity - Marginal (Hepatotoxicity [5]): 0 | Composite Activity - Score (Hepatotoxicity [5]): Inactive | SGOT Increase - Activity Score (Hepatotoxicity [6]): Inactive | SGOT Increase - Index Value (Hepatotoxicity [6]): 0 | SGOT Increase - Number of Reports (Hepatotoxicity [6]): < 4

CC(C)(C)NC[C@H](O)COc1nsnc1N1CCOCC1 [TIMOLOL]
Alkaline Phosphatase Increase - Activity Score (Hepatotoxicity [1]): Inactive | Alkaline Phosphatase Increase - Index Value (Hepatotoxicity [1]): 0.1 | Alkaline Phosphatase Increase - Number of Reports (Hepatotoxicity [1]): < 4 | SGPT Increase - Activity Score (Hepatotoxicity [2]): Inactive | SGPT Increase - Index Value (Hepatotoxicity [2]): 0.1 | SGPT Increase - Number of Reports (Hepatotoxicity [2]): < 4 | LDH Increase - Activity Score (Hepatotoxicity [3]): Inactive | LDH Increase - Index Value (Hepatotoxicity [3]): 0.1 | LDH Increase - Number of Reports (Hepatotoxicity [3]): < 4 | GGT Increase - Activity Score (Hepatotoxicity [4]): Inactive | GGT Increase - Index Value (Hepatotoxicity [4]): 0 | GGT Increase - Number of Reports (Hepatotoxicity [4]): < 4 | Composite Activity - Active (Hepatotoxicity [5]): 0 | Composite Activity - Marginal (Hepatotoxicity [5]): 0 | Composite Activity - Score (Hepatotoxicity [5]): Inactive | SGOT Increase - Activity Score (Hepatotoxicity [6]): Inactive | SGOT Increase - Index Value (Hepatotoxicity [6]): 0.1 | SGOT Increase - Number of Reports (Hepatotoxicity [6]): < 4

Cc1nnc2n1-c1ccc(Cl)cc1C(c1ccccc1Cl)=NC2 [TRIAZOLAM]
Alkaline Phosphatase Increase - Activity Score (Hepatotoxicity [1]): Inactive | Alkaline Phosphatase Increase - Index Value (Hepatotoxicity [1]): 0.4 | Alkaline Phosphatase Increase - Number of Reports (Hepatotoxicity [1]): < 4 | SGPT Increase - Activity Score (Hepatotoxicity [2]): Inactive | SGPT Increase - Index Value (Hepatotoxicity [2]): 0 | SGPT Increase - Number of Reports (Hepatotoxicity [2]): < 4 | LDH Increase - Activity Score (Hepatotoxicity [3]): Inactive | LDH Increase - Index Value (Hepatotoxicity [3]): 0 | LDH Increase - Number of Reports (Hepatotoxicity [3]): < 4 | GGT Increase - Activity Score (Hepatotoxicity [4]): Inactive | GGT Increase - Index Value (Hepatotoxicity [4]): 0 | GGT Increase - Number of Reports (Hepatotoxicity [4]): < 4 | Composite Activity - Active (Hepatotoxicity [5]): 0 | Composite Activity - Marginal (Hepatotoxicity [5]): 0 | Composite Activity - Score (Hepatotoxicity [5]): Inactive | SGOT Increase - Activity Score (Hepatotoxicity [6]): Inactive | SGOT Increase - Index Value (Hepatotoxicity [6]): 0.3 | SGOT Increase - Number of Reports (Hepatotoxicity [6]): < 4

CCN[C@H]1C[C@H](C)S(=O)(=O)c2sc(S(N)(=O)=O)cc21 [DORZOLAMIDE]
Alkaline Phosphatase Increase - Activity Score (Hepatotoxicity [1]): Inactive | Alkaline Phosphatase Increase - Index Value (Hepatotoxicity [1]): 0 | Alkaline Phosphatase Increase - Number of Reports (Hepatotoxicity [1]): < 4 | SGPT Increase - Activity Score (Hepatotoxicity [2]): Inactive | SGPT Increase - Index Value (Hepatotoxicity [2]): 0.1 | SGPT Increase - Number of Reports (Hepatotoxicity [2]): < 4 | LDH Increase - Activity Score (Hepatotoxicity [3]): Inactive | LDH Increase - Index Value (Hepatotoxicity [3]): 0.1 | LDH Increase - Number of Reports (Hepatotoxicity [3]): < 4 | GGT Increase - Activity Score (Hepatotoxicity [4]): Inactive | GGT Increase - Index Value (Hepatotoxicity [4]): 0 | GGT Increase - Number of Reports (Hepatotoxicity [4]): < 4 | Composite Activity - Active (Hepatotoxicity [5]): 0 | Composite Activity - Marginal (Hepatotoxicity [5]): 0 | Composite Activity - Score (Hepatotoxicity [5]): Inactive | SGOT Increase - Activity Score (Hepatotoxicity [6]): Inactive | SGOT Increase - Index Value (Hepatotoxicity [6]): 0.2 | SGOT Increase - Number of Reports (Hepatotoxicity [6]): < 4

CN(Cc1ccc(C(C)(C)C)cc1)Cc1cccc2ccccc12 [BUTENAFINE]
Alkaline Phosphatase Increase - Activity Score (Hepatotoxicity [1]): Inactive | Alkaline Phosphatase Increase - Index Value (Hepatotoxicity [1]): 0 | Alkaline Phosphatase Increase - Number of Reports (Hepatotoxicity [1]): < 4 | SGPT Increase - Activity Score (Hepatotoxicity [2]): Inactive | SGPT Increase - Index Value (Hepatotoxicity [2]): 0 | SGPT Increase - Number of Reports (Hepatotoxicity [2]): < 4 | LDH Increase - Activity Score (Hepatotoxicity [3]): Inactive | LDH Increase - Index Value (Hepatotoxicity [3]): 0 | LDH Increase - Number of Reports (Hepatotoxicity [3]): < 4 | GGT Increase - Activity Score (Hepatotoxicity [4]): Inactive | GGT Increase - Index Value (Hepatotoxicity [4]): 0 | GGT Increase - Number of Reports (Hepatotoxicity [4]): < 4 | Composite Activity - Active (Hepatotoxicity [5]): 0 | Composite Activity - Marginal (Hepatotoxicity [5]): 0 | Composite Activity - Score (Hepatotoxicity [5]): Inactive | SGOT Increase - Activity Score (Hepatotoxicity [6]): Inactive | SGOT Increase - Index Value (Hepatotoxicity [6]): 0 | SGOT Increase - Number of Reports (Hepatotoxicity [6]): < 4
